Laboratory results published in patent US10544113B2 (priority 2016, dated 2020).
Where two headings read alike, the source gives them in different places.

Experiments:
mu-opioid receptor (MOR) = mu-opioid receptor (MOR) (Homo sapiens (Human), UniProt P35372); assay: cell-based; conditions: for AUC: AUC of [Ca2+]i fluorescence, CHO-K1/MOR/Gα15 cells
B6 mice = assay: Tail-flick test; format: in vivo, mouse; design: key to Activity of tail-flick test: ++: 25 mg/kg (intravenous) or 50 nmol (intrathecal) active; +: 100 mg/kg (intravenous) active; conditions: mice; compound given intravenous or intrathecal
Experimental: In an exemplary in vivo method, a test compound and a MOR antagonist are injected into a mouse pain model (for example, intravenous but not limited), basal latencies are recorded before the treatment and test latencies are recorded at various specified times after the injection, and a time-response curve is recorded and AUC values are calculated to determine whether an analgesic effect is exerted on the mouse. The test compound is confirmed to be an antagonist-to-agonist allosteric modifier of the MOR upon observation of an analgesic effect.
Male wild-type (WT) B6 mice (25-30 g) were kept in a temperature-controlled animal room with a 12-h light/dark cycle. The protocol has been approved by the Institutional Animal Care and Use Committee of the National Health Research Institutes, Taiwan. Animal experiments were carried out in accordance with the Policies on the Use of Animals in Neuroscience Research and the ethical guidelines for investigations of experimental pain in conscious animals, International Association for the Study of Pain. Tail-Flick Analgesia Meter (Columbia Instruments) was used to measure the tail-flick latencies of mice. The cut-off time for each measurement was 10 s to avoid tissue damage. Basal latencies were recorded before treatment and test latencies were recorded 30, 60, 90, 120 and 180 min after an intravenous injection of drugs. […] ED50 values were determined by the up-and-down method reported in Crocker et al., Pharmacol Biochem Behav, 1984, 21, 133-136.
An in vivo study, i.e., tail-flick test, was performed to investigate whether AAMs could change innate character of μ-opioid receptor in the presence of naloxone. […] In mice injected with naloxone (10 mg/kg; s.c.), the ED50 value of compound 58 in inhibition of the tail-flick response was determined to be 23.1±7.1 nmole.

DOR = assay: cAMP assay (adenylyl cyclase inhibition) in HEK-DOR cells; format: cell-based
Experimental: Human embryonic kidney 293 (HEK-293) cells constitutively expressing MOR (HEK-MOR) and DOR (HEK-DOR) (kindly provided by Dr. Ping-Yee Law, University of Minnesota, USA) were cultured in high-glucose Dulbecco's modified Eagle's medium (DMEM, GIBCO) supplemented with 400 μg/mL G418 (Sigma), 2 mM L-glutamine and P/S/F (100 units/mL penicillin, 100 μg/mL streptomycin, 10% fetal bovine serum). Chinese hamster ovary (CHO)-K1 cells, stably expressing hMOR and Gα15 (CHO-K1/MOR/Gα15), were cultured in F12 medium (GIBCO) supplemented with 10 μg/mL Hygromycin B (Invivogen), 20 μg/mL Zeocin (Invivogen) P/S/F (100 units/mL penicillin, 100 μg/mL streptomycin, 10% fetal bovine serum). The cultures were incubated at 37° C. in a humidified 5% CO2 incubator.
Briefly, 2000 HEK-MOR cells or HEK-DOR cells were plated in 10 μL/well of DMEM in 96-well solid bottom white plates and 10 μL/well compound in HBSS in the presence with 1 μM forskolin and 100 μM 3-isobutyl-1-methylxanthine (IBMX). After 30 minutes of incubation at room temperature, 10 μL/well of labeled d2-cAMP and 10 μL/well of anti-cAMP antibody (both diluted in lysis buffer) were added to each well. Two hours later, plates were measured using the FlexStationIII (Molecular Devices Corp.) with excitation at 330 nm and emissions of 620 nm and 665 nm.
To characterize of novel opioid receptor AAMs, the activity and selectivity of compound 58 were tested by inhibiting adenylyl cyclase activity (i.e., cAMP assay).
Opoid receptors inhibit adenylyl cyclase activity through Gi/o family of heterotrimeric G proteins. A cAMP-accumulation assay was performed to determine whether opioid receptor AAMs affect a G protein-dependent signaling pathway.

[1] = EC50, CHO-K1/MOR/Gα15 cells, combined with a MOR antagonist
[2] = combined with a MOR antagonist, read-out: FLIPR Ca^2+ EC50

mu-opioid receptor (MOR), sequence (P35372 whole entry): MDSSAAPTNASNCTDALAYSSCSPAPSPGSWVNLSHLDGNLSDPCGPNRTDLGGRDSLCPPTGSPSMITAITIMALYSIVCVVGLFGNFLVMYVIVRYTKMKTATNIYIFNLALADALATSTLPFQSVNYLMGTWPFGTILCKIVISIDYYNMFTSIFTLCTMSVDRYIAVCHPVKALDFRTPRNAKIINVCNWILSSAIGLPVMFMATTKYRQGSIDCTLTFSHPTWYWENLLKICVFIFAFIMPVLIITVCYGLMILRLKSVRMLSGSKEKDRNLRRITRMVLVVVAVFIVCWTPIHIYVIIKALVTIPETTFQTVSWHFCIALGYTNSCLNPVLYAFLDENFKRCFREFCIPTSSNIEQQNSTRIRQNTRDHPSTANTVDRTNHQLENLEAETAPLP

Row | Compound | AUC (mu-opioid receptor (MOR); combined with a MOR antagonist) | EC50 (mu-opioid receptor (MOR); [1]) | EC50 (mu-opioid receptor (MOR); FLIPR Ca^2+ EC50, combined with a MOR antagonist) | FLIPR Ca^2+ AUC (mu-opioid receptor (MOR); combined with a MOR antagonist) | EC50 (mu-opioid receptor (MOR); [2]) | Activity of tail-flick test (B6 mice) | cAMP-inhibition response (DOR; % of forskolin-stimulated (1 μM) cAMP accumulation) | EC50 (DOR; agonist alone)
1 | [2H]C1(c2ccc(F)cc2)SCC(=O)N1c1ccc(C(=O)OCC)cc1C (centres unmarked) [Example 583, Ethyl 4-[2-(4-fluorophenyl)-4-oxo-2-d1-1,3-thiazolidin-3-yl]-3-methylbenzoate] | more than 5000 | < 10 µM | 4.42 µM | 11275 |  |  |  | 
2 | CCONC(=O)c1ccc(N2C(=O)CSC2c2ccc(F)cc2)c(C)c1 (centres unmarked) [Example 588, N-Ethoxy-4-[2-(4-fluorophenyl)-4-oxo-1,3-thiazolidin-3-yl]-3-methylbenzamide] | more than 5000 | < 10 µM |  | 9986 | 9.27 µM |  |  | 
3 | COCCOCCOC(=O)c1ccc(S(=O)(=O)NC(=O)c2ccc(N3C(=O)CSC3c3ccc(F)cc3)c(C)c2)cc1 (centres unmarked) [Example 591, 2-(2-Methoxyethoxy)ethyl 4-({4-[2-(4-fluorophenyl)-4-oxo-1,3-thiazolidin-3-yl]-3-methylbenzoyl}sulfamoyl)benzoate] | more than 5000 |  |  | 13033 | 10.3 µM |  |  | 
4 | COCCS(=O)(=O)NC(=O)c1ccc(N2C(=O)CSC2c2ccc(F)cc2)c(C)c1 (centres unmarked) [Example 593, 4-[2-(4-Fluorophenyl)-4-oxo-1,3-thiazolidin-3-yl]-N-[(2-methoxyethyl)sulfonyl]-3-methylbenzamide] | more than 5000 | < 10 µM |  | 11543 | 2.21 µM |  |  | 
5 | COCCOCCS(=O)(=O)NC(=O)c1ccc(N2C(=O)CSC2c2ccc(F)cc2)c(C)c1 (centres unmarked) [Example 597, 4-[2-(4-Fluorophenyl)-4-oxo-1,3-thiazolidin-3-yl]-N-{[2-(2-methoxyethoxy)ethyl]sulfonyl}-3-methylbenzamide] | more than 5000 | < 10 µM |  | 10720 | 1.12 µM |  |  | 
6 | Cc1cc(C(O)C(F)(F)F)ccc1N1C(=O)CSC1c1ccc(F)cc1 (centres unmarked) [Example 600, 2-(4-Fluorophenyl)-3-[2-methyl-4-(2,2,2-trifluoro-1-hydroxyethyl)phenyl]-1,3-thiazolidin-4-one] | more than 5000 | < 10 µM |  | 13110 | 6.75 µM |  |  | 
7 | Cc1cccnc1N1C(=O)CSC1c1ccc(F)cc1 (centres unmarked) [Example 629, 2-(4-Fluorophenyl)-3-(3-methylpyridin-2-yl)-1,3-thiazolidin-4-one] |  |  |  | 4804 | 10 µM |  |  | 
8 | CCOC(=O)c1ccc(N2C(=O)CSC2c2ccc(F)cc2)c(C)n1 (centres unmarked) [Example 635, Ethyl 5-[2-(4-fluorophenyl)-4-oxo-1,3-thiazolidin-3-yl]-6-methylpyridine-2-carboxylate] | more than 5000 |  |  | 9843 | 10.9 µM |  |  | 
9 | CC(C)(C)c1cc(N2C(=O)CSC2c2ccc(F)cc2)no1 (centres unmarked) [Example 640, 3-(5-tert-Butyl-1,2-oxazol-3-yl)-2-(4-fluorophenyl)-1,3-thiazolidin-4-one] | more than 5000 |  |  | 9872 | 14.2 µM |  |  | 
10 | COC(=O)c1ccc(N2C(=O)CSC2c2ccsc2)c(C)c1 (centres unmarked) [Example 648, Methyl 3-methyl-4-[4-oxo-2-(thiophen-3-yl)-1,3-thiazolidin-3-yl]benzoate] | more than 5000 | < 10 µM |  | 9356 | 2.01 µM |  |  | 
11 | N-Cyclobutyl-4-[2-(4-fluorophenyl)-4-oxo-1, 3-thiazolidin-3-yl]-3-methylbenzamide [Example 255] |  |  |  |  |  | + |  | 
12 | [D-Pen(2),D-Pen(5)]-enkephalin [DPDPE] |  |  |  |  |  |  | 60% | 0.0005 µM
